Legend:
Assay type in all cases: biochemical
Stromelysin = Stromelysin (Homo sapiens, UniProt P08254); assay: MMP inhibition by particle concentration fluorescence technique (stromelysin); conditions: pH 7.5; 15 min enzyme preincubation; substrate 1-3 h at room temperature; read-out: MMP Inhibition Constants, Stromelysin Ki
How it was run: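 Fluorescein- and biotin-labelled substrate captured on avidin particles after reaction; intact, uncleaved substrate retains fluorescence, so signal rises with inhibition. Activated enzyme incubated with two-fold serial compound dilutions 15 minutes at room temperature.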

Gelatinase = assay: MMP inhibition by particle concentration fluorescence technique (gelatinase); conditions: pH 7.5; 15 min enzyme preincubation; substrate 1-3 h at room temperature; read-out: MMP Inhibition Constants, Gelatinase Ki
How it was run: (§1)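 Compound serially diluted two-fold in 50 mM Tris-HCl pH 7.5, 150 mM NaCl, preincubated 15 min with activated enzyme at room temperature. Fluorescein/biotin-tagged substrate then added for 1-3 hours in the dark. Intact substrate captured on avidin-coated particles; fluorescence signal indicates inhibition.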

Collagenase = target: T1, Collagenase (Homo sapiens, UniProt P03956); assay: MMP inhibition by particle concentration fluorescence technique (collagenase); conditions: pH 7.5; 15 min enzyme preincubation; substrate 1-3 h at room temperature; read-out: MMP Inhibition Constants, Collagenase Ki
T1 sequence (P03956 100-469): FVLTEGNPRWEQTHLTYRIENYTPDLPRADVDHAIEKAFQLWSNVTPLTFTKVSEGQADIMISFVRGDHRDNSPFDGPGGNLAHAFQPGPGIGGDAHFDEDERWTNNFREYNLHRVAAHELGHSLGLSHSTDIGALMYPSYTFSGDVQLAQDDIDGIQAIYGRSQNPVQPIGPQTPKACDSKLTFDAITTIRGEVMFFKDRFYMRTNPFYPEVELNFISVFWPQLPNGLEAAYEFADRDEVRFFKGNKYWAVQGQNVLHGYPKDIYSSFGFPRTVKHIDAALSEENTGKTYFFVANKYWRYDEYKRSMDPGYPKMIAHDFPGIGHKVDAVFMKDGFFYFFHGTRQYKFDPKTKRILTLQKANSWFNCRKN
How it was run: as §1

Sequence of Stromelysin (P08254 100-477): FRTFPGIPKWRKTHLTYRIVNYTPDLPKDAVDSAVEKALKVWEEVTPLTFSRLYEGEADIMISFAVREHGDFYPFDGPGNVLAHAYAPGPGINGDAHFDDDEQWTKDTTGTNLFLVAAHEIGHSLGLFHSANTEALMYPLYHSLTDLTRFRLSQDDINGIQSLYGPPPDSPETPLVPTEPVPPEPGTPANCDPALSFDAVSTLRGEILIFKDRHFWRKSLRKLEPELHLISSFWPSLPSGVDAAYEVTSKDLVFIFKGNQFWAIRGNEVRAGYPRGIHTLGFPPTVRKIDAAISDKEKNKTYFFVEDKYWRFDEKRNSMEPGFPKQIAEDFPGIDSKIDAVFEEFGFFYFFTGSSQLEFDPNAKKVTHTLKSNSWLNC

Ki (Stromelysin) [nM]	Ki (Gelatinase) [nM]	Ki (Collagenase) [nM]	Structure (SMILES)
27200	3550	2300	CC(C)CC1(CC(=O)NO)CCN(CCc2ccccc2)C1=O (stereo not drawn) [Example 1, N-Hydroxy-3-(2-methylpropyl)-2-oxo-1-(2-phenylethyl)-3-pyrrolidineacetamide]
138	61	85	CC(C)C[C@@H](C(=O)Nc1ccccn1)N1CC[C@](CC(=O)NO)(CC(C)C)C1=O [Example 49, [S-(R*,R*)]-N^3 -Hydroxy-α^1,3-bis(2-methylpropyl)-2-oxo-N^1-2-pyridinyl-1,3-pyrrolidinediacetamide]
1900	211	750	CC(C)C[C@@]1(CC(=O)NO)CCN([C@@H](Cc2ccccc2)C(=O)N2CCOCC2)C1=O [Example 55, [S-(R*,R*)]-N-Hydroxy-3-(2-methylpropyl)-1-[2-(4-morpholinyl)-2-oxo-1-(phenylmethyl)ethyl]-2-oxo-3-pyrrolidineacetamide]
4140	31	22	CNC(=O)[C@H](Cc1ccccc1)N1CC[C@@](CCC(C)C)(CC(=O)NO)C1=O [Example 34, [S-(R*,R*)]-N^3 -Hydroxy-N^1-methyl-3-(3-methylbutyl)-2-oxo-α^1-(phenylmethyl)-1,3-pyrrolidinediacetamide]
868	85.3	81.5	CNC(=O)[C@H](CCc1ccccc1)N1CC[C@](CC(=O)NO)(CC(C)C)C1=O [Example 47, [S-(R*,R*)]-N^3 -Hydroxy-N^1-methyl-3-(2-methylpropyl)-2-oxo-α^1-(2-phenylethyl)-1,3-pyrrolidinediacetamide]
385	160	72	CC(C)C[C@@]1(CC(=O)NO)CCN([C@@H](CCc2ccccc2)C(=O)NCc2ccccc2)C1=O [Example 48, [S-(R*,R*)]-N^3 -Hydroxy-3-(2-methylpropyl)-2-oxo-α^1-(2-phenylethyl)-N^1-(phenylmethyl)-1,3-pyrrolidinediacetamide]
1800	2.3	2.36	CC(C)C[C@@]1(CC(=O)NO)CCN([C@@H](Cc2ccccc2)C(=O)NC2CCN(Cc3ccccc3)CC2)C1=O [Example 43, [S-(R*,R*)]-N^3 -Hydroxy-3-(2-methylpropyl)-2-oxo-α^1-(phenylmethyl)-N^1-[1-(phenylmethyl)-4-piperdinyl]-1,3-pyrrolidinediacetamide]
283	17	6.06	CNC(=O)[C@H](C1CCCCC1)N1CC[C@](CC(=O)NO)(CC(C)C)C1=O [Example 50, [S-(R*,R*)]-α^1 -Cyclohexyl-N^3-hydroxy-N^1-methyl-3-(2-methylpropyl)-2-oxo-1,3-pyrrolidinediacetamide]
101	75.9	5.81	CC(C)C[C@@]1(CC(=O)NO)CCN([C@@H](Cc2ccccc2)C(=O)Nc2ccccc2)C1=O [Example 39, [S-(R*,R*)]-N^3 -Hydroxy-3-(2-methylpropyl)-2-oxo-N^1-phenyl-α^1-(phenylmethyl)-1,3-pyrrolidinediacetamide]
1050	24	16	CNC(=O)[C@H](Cc1ccccc1)N1CC[C@](CC(=O)NO)(CC(C)C)C1=O [Example 30, [S-(R*,R*)]-N^3 -Hydroxy-N^1-methyl-3-(2-methylpropyl)-2-oxo-α^1-(phenylmethyl)-1,3-pyrrolidinediacetamide]
14	2.3	2.8	CC(C)C[C@@]1(CC(=O)NO)CCN([C@@H](Cc2ccccc2)C(=O)Nc2ccncc2)C1=O [Example 41, [S-(R*,R*)]-N^3 -Hydroxy-3-(2-methylpropyl)-2-oxo-α^1-(phenylmethyl)-N^1-(4-pyridinyl)-1,3-pyrrolidinediacetamide]

The remaining lines, values behind:

Structure (SMILES)	Ki (Stromelysin) [nM]	Ki (Gelatinase) [nM]	Ki (Collagenase) [nM]
CC(C)C[C@@]1([C@@H](CCN2Cc3cc(F)ccc3C2=O)C(=O)NO)CCN(CCc2ccccc2)C1=O [Example 88, [R-(R*,S*)]-5-Fluoro-1,3-dihydro-N-hydroxy-α-[3-(2-methylpropyl)-2-oxo-1-(2-phenylethyl)-3-pyrrolidinyl]-1-oxo-2H-isoindole-2-butanamide]	288	62	326
CC(C)C[C@@]1([C@@H](CCNC(=O)c2cccc(F)c2)C(=O)NO)CCN(CCc2ccc(F)cc2)C1=O (relative stereo) [Example 78, α-[2-[(3-Fluorobenzoyl)amino]ethyl]-1-[2-(4-fluorophenyl)ethyl]-N-hydroxy-3-(2-methylpropyl)-2-oxo-3-pyrrolidineacetamide]	696	278	18
COc1ccc(S(=O)(=O)NC[C@H](C(=O)NO)[C@]2(CC(C)C)CCN(CCc3ccccc3)C2=O)cc1 (relative stereo) [Example 90, N-Hydroxy-α-[[[(4-methoxyphenyl)sulfonyl]amino]methyl]-3-(2-methylpropyl)-2-oxo-1-(2-phenylethyl)-3-pyrrolidineacetamide]	1770	624	52
CCCOc1ccc2c(c1)C(=O)N(CCC(C(=O)NO)C1(CC(C)C)CCN(CCc3ccccc3)C1=O)C2=O (stereo not drawn) [Example 62, N-Hydroxy-3-(2-methylpropyl)-2-oxo-1-(2-phenylethyl)-α-[2-(5-propyloxy-1,3-dihydro-1,3-dioxo-2H-isoindol-2-yl)ethyl]-3-pyrrolidineacetamide]	369	310	55000
CC(C)C[C@@]1([C@@H](CCN2C(=O)c3ccccc3C2=O)C(=O)NO)CCN(CCc2ccc(F)cc2)C1=O (relative stereo) [Example 68, 1-[2-(4-Fluorophenyl)ethyl]-α-[2-(1,3-dihydro-1,3-dioxo-2H-isoindol-2-yl)ethyl]-N-hydroxy-3-(2-methylpropyl)-2-oxo-3-pyrrolidineacetamide]	350	160	1460
CC(C)C[C@@]1(CC(=O)NO)CCN([C@H](C(=O)Nc2ccc(F)cc2)C2CCCCC2)C1=O [Example 60, [S-(R*,R*)]-α^1 -Cyclohexyl-N^1-(4-fluorophenyl)-N^3-hydroxy-3-(2-methylpropyl)-2-oxo-1,3-pyrrolidinediacetamide]	19	12.3	18
CC(C)CC1(C(CCN2C(=O)c3cc(F)c(F)cc3C2=O)C(=O)NO)CCN(CCc2ccccc2)C1=O (stereo not drawn) [Example 64, α-[2-(5,6-Difluoro-1,3-dihydro-1,3-dioxo-2H-isoindol-2-yl)ethyl]-N-hydroxy-3-(2-methylpropyl)-2-oxo-1-(2-phenylethyl)-3-pyrrolidineacetamide]	107	49	735
CC(C)C[C@@]1([C@@H](CCN2C(=O)c3ccc(F)cc3C2=O)C(=O)NO)CCN(CCc2ccccc2)C1=O [Example 63, [R-(R*,S*)]-5-Fluoro-1,3-dihydro-N-hydroxy-α-[3-(2-methylpropyl)-2-oxo-1-(2-phenylethyl)-3-pyrrolidinyl]-1,3-dioxo-2H-isoindole-2-butanamide]	58	32	1500
CC(C)C[C@@]1([C@@H](CCN2C(=O)c3ccc(N)cc3C2=O)C(=O)NO)CCN(CCc2ccccc2)C1=O (relative stereo) [Example 9, α-[2-(5-Amino-1,3-dihydro-1,3-dioxo-2H-isoindol-2-yl)ethyl]-N-hydroxy-3-(2-methylpropyl)-2-oxo-1-(2-phenylethyl)-3-pyrrolidineacetamide]	903	780	14300
